From patent US20090214580A1, “Peptide mixtures with immunomodulatory activity” (priority 2004, published 2009)

How the values were obtained:
[1] = system: EAE; conditions: Lewis rats; cited from earlier work
[2] = system: PBMC from healthy donors and MS patients; assay: T cell proliferation of PBMC, primary and secondary (3H-thymidine); assay type: cell-based, human; conditions: 20 μg/ml; healthy donor and MS patient PBMC; words
Procedure: FIG. 1: Peptide length and composition affect the stimulatory potential of complex mixtures (CM). The stimulatory capacity of CM ranging in size and composition were tested in PBMC from nine healthy donors in both primary (A,C) and secondary (B,D) proliferations to confirm the specificity of the response. 20 μg/ml of CM or GA were each added to 18 wells and the % of positive wells (those wells with CPM having an SI greater than twice that observed in background/control wells) determined from pooled data from all donors. Figures A and B analyze the contribution of peptide length and Figures C and D the composition or MHC-bias to stimulatory potential. […]
PBMC were isolated from leukocytaphereses and seeded in complete T cell medium (TCM; Iscove's modified Dulbecco's medium [IMDM] containing 2 mM 1-glutamine, 50 μg/ml gentamycin, penicillin-streptomycin 100 U/ml each, and 5% pooled human AB serum) at 2×10^5 cells/well into 96 well U-bottom microtiter plates (Nunc, Naperville, Ill.) and stimulated with CM and GA at 20 μg/ml. After 6 days, 100 μl samples of cell suspension were removed from these plates and transferred to a new microtiter plate to which 1 μCi/well of H^3-thymdidine (Amersham Pharmacia Biotech, Piscataway, N.J.) was added and after 16 hours harvested and counted in a scintillation counter (Microbeta, Wallac, Gatihersburg, Md.). […]

[3] = system: SJL mouse spleen cells; assay: SJL mouse spleen primary proliferative responses to CM; assay type: cell-based; conditions: naive SJL spleen cells; 40, 10, 2.5 μg/ml; words
Procedure: FIG. 3: SJL mouse spleen primary proliferative responses to CM. Mouse splenic cells were seeded with 3 different doses of CM (40, 10 and 2.5 μg/ml) or GA to test for stimulatory potential of CM of (A) varying length or (B) differential anchor bias. 18 wells were seeded per antigen, and data from 2 experiments were pooled. % positive wells represents the proportion of wells with CPM at a SI greater than 2 compared to background/control wells.
(§1) 6-8 week old female SJL/J mice were purchased from Charles River Laboratories (Wilmington, Mass.). Spleen cells were isolated from anesthetized naïve SJL mice or 10 days after immunization with 200 μg of CM or GA in Complete Freund's Adjuvant (CFA—Difco Laboratories, Detroit, Mich.) on four spots on their back and subsequent aseptic spleen removal and red blood cell lysis using ACK lysis buffer from Biosource (Camarillo, Calif.). […] After six or three days in naïve or immunized mouse experiments respectively, 1 μCi ^3[H]-thymidine (Dupont, Wilmington, Del.) was added overnight and subsequently harvested and counted for thymidine incorporation on a Trilux liquid scintillation counter (Wallac, Gaithersburg, Md.).

[4] = system: spleen cells from immunized SJL mice; assay: Spleen cells of CM- or GA-immunized SJL mice, response to immunizing antigen; assay type: cell-based, mouse; conditions: spleen cells ten days after immunization; words
Text: (§2) FIG. 4. Cross reactivity of CM-specific lines to MBP. SJL mice were immunized with CM or GA to enhance the number of CM-specific T cells to assess for cross-reactivity to MBP. Spleen cells were removed from mice ten days post immunization and set into culture (6 wells per condition) with the initial immunizing antigen or human MBP at the μg/ml concentrations shown on the X axes. *p<0.05 by Student's t test comparing proliferation in test wells to control wells without antigen.
as §1

[5] = system: whole human MBP; assay: Spleen cells of CM- or GA-immunized SJL mice, cross reactivity to human MBP; assay type: cell-based, mouse; conditions: spleen cells ten days after immunization; words
Text: as §2, §1

[6] = system: PLP139-151-induced EAE; assay: Prophylaxis in PLP139-151-induced EAE; assay type: in vivo, SJL mice
[7] = system: multiple sclerosis; conditions: MS patients; cited from earlier work
[8] = target: HLA-DR2 (Homo sapiens, UniProt P01903+P01911); conditions: cited from earlier work

EYYKEYYKEYYK
effect on EAE [1]: ameliorate EAE

Glatiramer acetate [GA]
stimulatory potential (proliferative responses, % positive wells) [2]: most frequently observed | stimulatory potential (primary proliferative responses) [3]: most frequently observed | response to immunizing antigen (SI) [4]: very high SIs | cross reactivity with whole human MBP [5]: cross reacted | Cumulative disease score (day 0-24) ([6]; 500 μg co-injected s.c. with 75 μg PLP 139-151, initial disease course, mean ± SEM): 10.2 ± 1.6 | Cumulative disease score (day 24-45) ([6]; 500 μg co-injected s.c. with 75 μg PLP 139-151, remaining disease course, mean ± SEM): 13.5 ± 3.0 | prophylactic effect on the EAE disease course ([6]; single 500 μg dose with PLP 139-151): significantly reduce the overall disease score | reduction of cumulative disease score throughout the relapse phase ([6]; single 500 μg dose with PLP 139-151, vs PLP alone): approximately one-third | reduction of the relapse rate in MS [7]: about 30% | competition for binding of MBP (85-99) to HLA-DR2 [8]: effectively compete

poly-YEAK
binding to DR2 molecules ([8]; compared with poly-YEA, -YEK and -YAK): better binders
